Test results as given in ChEMBL document CHEMBL4033706, “Synthesis of novel acyl selenoureido benzensulfonamides as carbonic anhydrase I, II, VII and IX inhibitors” (Bioorg Med Chem, 2017).

Molecular target: Carbonic anhydrase 9 (Homo sapiens, UniProt Q16790)
Description: Inhibition of recombinant human carbonic anhydrase-9 assessed as reduction in CO2 hydration preincubated for 15 mins followed by CO2 addition measured for 10 to 100 secs by stopped-flow assay

Compound	Ki [nM]
Cc1cccc(C(=O)NC(=[Se])Nc2cccc(S(N)(=O)=O)c2)c1	43.9
CC(=O)Oc1ccccc1C(=O)NC(=[Se])Nc1ccc(S(N)(=O)=O)cc1	13.6
NS(=O)(=O)c1ccc(CCNC(=[Se])NC(=O)c2ccc3c(c2)OCO3)cc1	105
NS(=O)(=O)c1ccccc1NC(=[Se])NC(=O)c1ccccc1	284
NS(=O)(=O)c1cccc(NC(=[Se])NC(=O)c2ccccc2)c1	374
Cc1cccc(C(=O)NC(=[Se])NCCc2ccc(S(N)(=O)=O)cc2)c1	146
NS(=O)(=O)c1ccc(NC(=[Se])NC(=O)c2ccccc2)cc1	4.6
CC(=O)Oc1ccccc1C(=O)NC(=[Se])Nc1cc(S(N)(=O)=O)ccc1O	80.8
NS(=O)(=O)c1cccc(NC(=[Se])NC(=O)c2ccc(C(F)(F)F)cc2C(F)(F)F)c1	4700
NS(=O)(=O)c1ccc(CCNC(=[Se])NC(=O)c2ccc(-c3ccccc3)cc2)cc1	4870
Cc1cc(C(=O)NC(=[Se])Nc2cc(S(N)(=O)=O)ccc2O)ccc1Br	5.8
NS(=O)(=O)c1ccc(NC(=[Se])NC(=O)c2cc(Br)cc(OC(F)(F)F)c2)cc1	3.5
NS(=O)(=O)c1ccc(CCNC(=[Se])NC(=O)c2ccccc2)cc1	7.2
NS(=O)(=O)c1ccc(O)c(NC(=[Se])NC(=O)c2ccc(-c3ccccc3)cc2)c1	69.1
CCCCCCCc1ccc(C(=O)NC(=[Se])Nc2ccc(S(N)(=O)=O)cc2)cc1	25.1
NS(=O)(=O)c1ccc(NC(=[Se])NC(=O)c2ccc3c(c2)OCO3)cc1	129
